What was measured:
Experiment in all cases: FICI of F332 with antibiotics
Format in all cases: cell-based, S. aureus
MRSA strain 1402 = system: MRSA strain 1402
MRSA strain 358 = system: MRSA strain 358
MRSA strain 2901 = system: MRSA strain 2901
MRSA strain 2919 = system: MRSA strain 2919
MRSA strain 200 = system: MRSA strain 200
MRSA strain 2973 = system: MRSA strain 2973
MRSA strain 3267 = system: MRSA strain 3267
MRSA strain 757 = system: MRSA strain 757
Description: The bacterial strains used in this study were clinically isolated MRSA strains USA300#757 and #2960 which were obtained from our laboratory. Determination of the Fractional Inhibitory Concentration Index (FICI) was adopted by the Müller-Hinton broth (MHB) dilution method as previously described. Twelve serial two-fold dilutions of PC190723, F332 and F361 were prepared in the 96-well microplate with concentration ranging from 512 to 0.25 μg/mL. […] Lastly, the compounds and the β-lactams were mixed at a 1:1 ratio and subjected to two-fold dilution as described previously. Each microplate well contained 100 μL of MHB supplemented with compounds alone, β-lactams alone or the mixture of compounds and β-lactams. Overnight cultures of S. aureus in the Müller-Hinton broth was diluted to OD595 of 0.08-0.1 in saline and added in each of the microplate well. The plates were incubated at 37° C. for 20 h. All tests were performed in duplicate and the inhibition of bacterial growth was determined by visualization. The FICI of compounds and β-lactams were calculated as followed: FICI=(MIC of combination of compound and β-lactam/MIC of compound alone)+(MIC of combination of compound and β-lactam/MIC of β-lactam alone).

MRSA strain 3580 = system: MRSA strain 3580

CCCCCCCCCNc1ccc(F)c(C(N)=O)c1F [Compound F332, 2,6-difluoro-3-(nonylamino)benzamide]
FICI of F332 combined with Amoxicillin (MRSA strain 1402): 1.02 | FICI of F332 combined with Cefuroxime (MRSA strain 1402): 0.63 | FICI of F332 combined with Cloxacillin (MRSA strain 1402): 0.75 | FICI of F332 combined with Meropenem (MRSA strain 1402): 5.00 | FICI of F332 combined with Meticillin (MRSA strain 1402): 0.56 | FICI of F332 combined with Amoxicillin (MRSA strain 358): 0.27 | FICI of F332 combined with Cefuroxime (MRSA strain 358): 1.13 | FICI of F332 combined with Cloxacillin (MRSA strain 358): 1.06 | FICI of F332 combined with Meropenem (MRSA strain 358): 129.0 | FICI of F332 combined with Meticillin (MRSA strain 358): 0.25 | FICI of F332 combined with Amoxicillin (MRSA strain 2901): 0.06 | FICI of F332 combined with Cefuroxime (MRSA strain 2901): 0.13 | FICI of F332 combined with Cloxacillin (MRSA strain 2901): 0.25 | FICI of F332 combined with Meropenem (MRSA strain 2901): 4.01 | FICI of F332 combined with Meticillin (MRSA strain 2901): 0.01 | FICI of F332 combined with Amoxicillin (MRSA strain 2919): 0.51 | FICI of F332 combined with Cefuroxime (MRSA strain 2919): 0.25 | FICI of F332 combined with Cloxacillin (MRSA strain 2919): 0.31 | FICI of F332 combined with Meropenem (MRSA strain 2919): 4.25 | FICI of F332 combined with Meticillin (MRSA strain 2919): 0.38 | FICI of F332 combined with Amoxicillin (MRSA strain 200): 0.02 | FICI of F332 combined with Cefuroxime (MRSA strain 200): 1.00 | FICI of F332 combined with Cloxacillin (MRSA strain 200): 1.00 | FICI of F332 combined with Meropenem (MRSA strain 200): 8.01 | FICI of F332 combined with Meticillin (MRSA strain 200): 0.25 | FICI of F332 combined with Amoxicillin (MRSA strain 2973): 0.08 | FICI of F332 combined with Cefuroxime (MRSA strain 2973): 0.53 | FICI of F332 combined with Cloxacillin (MRSA strain 2973): 0.07 | FICI of F332 combined with Meropenem (MRSA strain 2973): 4.03 | FICI of F332 combined with Meticillin (MRSA strain 2973): 0.28 | FICI of F332 combined with Amoxicillin (MRSA strain 3267): 0.25 | FICI of F332 combined with Cefuroxime (MRSA strain 3267): 0.01 | FICI of F332 combined with Cloxacillin (MRSA strain 3267): 0.25 | FICI of F332 combined with Meropenem (MRSA strain 3267): 4.01 | FICI of F332 combined with Meticillin (MRSA strain 3267): 0.07 | FICI of F332 combined with Amoxicillin (MRSA strain 757): 0.27 | FICI of F332 combined with Cefuroxime (MRSA strain 757): 0.08 | FICI of F332 combined with Cloxacillin (MRSA strain 757): 0.13 | FICI of F332 combined with Meropenem (MRSA strain 757): 1.06 | FICI of F332 combined with Meticillin (MRSA strain 757): 0.09 | FICI of F332 combined with Amoxicillin (MRSA strain 3580): 0.28 | FICI of F332 combined with Cefuroxime (MRSA strain 3580): 0.06 | FICI of F332 combined with Cloxacillin (MRSA strain 3580): 0.53 | FICI of F332 combined with Meropenem (MRSA strain 3580): 1.25 | FICI of F332 combined with Meticillin (MRSA strain 3580): 0.19

Reference: US20170348258A1, “3-Amino Benzamide Derivative Serving As B-Lactam Auxiliary Antibiotic, Preparation Method and Use Thereof” (THE HONG KONG POLYTECHNIC UNIVERSITY, priority 2014, published 2017)
